Data set [1] in a line: Plasma concentrations measured by UPLC-MSMS in the case patient. It counts as in vivo, human. Here is the method:
The patient had pancreatic cancer and was admitted to Hirosaki University hospital to undergo a pancreatoduodenectomy. Written informed consent was obtained from this patient for the measurement of each biomarker and polymorphisms of pharmacokinetics-related genes. […] This regimen involved taking CAM 400 mg twice per day after breakfast and supper, RFP 450 mg once per day after breakfast, and ethambutol 750 mg once per day.

For data set [2] the following is noted: cited from earlier work.
For another data set, the system named is albumin. To be noted: cited from earlier work.
The test system of data set [3] is P-glycoprotein (P-gp; gene code ABCB1). To be noted: cited from earlier work.
In data set [4] the test system is organic anion transporting polypeptide 1B1 (OATP1B1; SLCO1B1). To be noted: cited from earlier work.

Consider `CCCCC(=O)N(Cc1ccc(-c2ccccc2-c2nnn[nH]2)cc1)[C@H](C(=O)O)C(C)C` [valsartan], for which the “Plasma concentration of valsartan” value stood at 2.4 µg/mL in data set [1] (POD6), 5.7 µg/mL in data set [1] (POD9), 10.4 µg/mL in data set [1] (POD11) and 1.0 µg/mL in data set [1] (POD131). For the same molecule, in data set [1] (male, human, plasma, POD10, read-out: Plasma concentration of valsartan), the concentration at 10 postoperative day is 9.4 µg/mL. Also, in data set [1] (male, human, plasma, POD14, read-out: Plasma concentration of valsartan), the concentration at 14 postoperative day is 1.4 µg/mL. Also, the “unchanged valsartan excreted in the urine” value in data set [2] is 13%.
Consider `CN1CCc2nc(C(=O)N[C@@H]3C[C@@H](C(=O)N(C)C)CC[C@@H]3NC(=O)C(=O)Nc3ccc(Cl)cn3)sc2C1` [edoxaban], for which the concentration at 26 h in data set [1] (male, human, in vivo, 30 mg/day, POD131, 26 h after last edoxaban tablet (C0h), edoxaban 30 mg/day, outpatient follow-up) was < 0.005 µg/mL. The same molecule registered a concentration at 2 h in data set [1] (male, human, in vivo, 30 mg/day, POD233, 2 h after last edoxaban tablet (C2h), edoxaban 30 mg/day, outpatient follow-up) of 0.413 µg/mL. This molecule registered a concentration at 24 h in data set [1] (male, human, in vivo, 60 mg once per day, POD9, 24 h after last edoxaban tablet (trough, C0h), edoxaban 60 mg once per day with RFP and CAM, onset of AKI) of 0.131 µg/mL. This molecule also showed a concentration at 8 h in data set [1] (male, human, in vivo, 60 mg once per day, POD10, 8 h after last edoxaban tablet (C8h), edoxaban 60 mg once per day with RFP and CAM, AKI) of 0.796 µg/mL. In data set [1] (male, human, in vivo, 60 mg once per day, POD11, 24 h after last edoxaban tablet (trough, C0h), AKI), this molecule showed a concentration at 24 h of 0.116 µg/mL. Besides, the concentration at 96 h in data set [1] (male, human, in vivo, 60 mg once per day, POD14, 96 h after last edoxaban tablet) is < 0.005 µg/mL. In the data set on albumin, the albumin binding rate is reported as 55%. Besides, in data set [2], the “absorbed drug excreted in its unchanged form through the kidneys” value is reported as “approximately 50%” and the bioavailability entry is given as “approximately 62%”. Further, in data set [3], the “substrate of P-glycoprotein” value is reported as “substrate”. Besides, the “substrate of OATP1B1” value in data set [4] is reported as “not an OATP1B1 substrate”.
